Article PMC9202945 (2022)

How the values were obtained:
[1] = tested on: Cy5-hTERT-FL (DNA, G4) GGGGAGGGGCTGGGAGGGCCCGGAGGGGGCTGGGCCGGGGACCCGGGAGGGGTCGGGACGGGGCGGGG; assay: microscale thermophoresis; settings: 25 mM KCl, pH 7.2, 1.5% DMSO
[2] = tested on: PQS23 (FRET-labelled) (DNA, G4) AGGGGGCTGGGCCGGGGACCCGGGAGGGGTCGGGACGGGGCGGGG; assay: fluorescence thermal shift assay; settings: 100 μM compound, 0.5 μM DNA, phosphate buffer
[3] = tested on: Ctrl HP (FRET-labelled) (DNA, hairpin) GCATGCTTTTGCATGC; assay: fluorescence thermal shift assay; settings: 100 μM compound, 0.5 μM DNA, phosphate buffer
[4] = tested on: TERT-FL (hTERT-FL) (DNA, G4) GGGGAGGGGCTGGGAGGGCCCGGAGGGGGCTGGGCCGGGGACCCGGGAGGGGTCGGGACGGGGCGGGG; assay: CD melting, 260 nm; settings: 20 mM KCl; 25 μM compound, 1.1 μM DNA
[5] = tested on: TERT-FL (hTERT-FL) (DNA, G4) GGGGAGGGGCTGGGAGGGCCCGGAGGGGGCTGGGCCGGGGACCCGGGAGGGGTCGGGACGGGGCGGGG; assay: competition dialysis; settings: 185 mM K+, phosphate buffer, RT, 5 μM compound, 75 μM DNA as tetrads, per tetrad, per base
[6] = tested on: AT duplex (DNA, hairpin) ATATATATATCCCCATATATATAT; assay: competition dialysis; settings: 185 mM K+, phosphate buffer, RT, 5 μM compound, 75 μM DNA as base pairs, per base pair
[7] = tested on: GC duplex (DNA, hairpin) GCGCGCGCGCTTTTGCGCGCGCGC; assay: competition dialysis; settings: 185 mM K+, phosphate buffer, RT, 5 μM compound, 75 μM DNA as base pairs, per base pair
[8] = tested on: c-Myc G4 (DNA, G4) TGAGGGTGGGTAGGGTGGGTAA; assay: competition dialysis; settings: 185 mM K+, phosphate buffer, RT, 5 μM compound, 75 μM DNA as tetrads, per tetrad, per base
[9] = tested on: H-Tel G4 (DNA, G4) AGGGTTAGGGTTAGGGTTAGGG; assay: competition dialysis; settings: 185 mM K+, phosphate buffer, RT, 5 μM compound, 75 μM DNA as tetrads, per tetrad, per base
[10] = tested on: GC Triplex (DNA, triplex) CCCCCCCCTTTTGGGGGGGGTTTTCCCCCCCC; assay: competition dialysis; settings: 185 mM K+, phosphate buffer, RT, 5 μM compound, 75 μM DNA as triplets, per triplet, per base
[11] = tested on: PQS12 (DNA, G4) AGGGGAGGGGCTGGGAGGGCCCGGAGGGGGCTGGGCCGGGGACCCGGGA; assay: competition dialysis; settings: 185 mM K+; phosphate buffer, RT, 5 μM compound, 75 μM DNA as tetrads
[12] = tested on: PQS23 (DNA, G4) AGGGGGCTGGGCCGGGGACCCGGGAGGGGTCGGGACGGGGCGGGG; assay: competition dialysis; settings: 185 mM K+; phosphate buffer, RT, 5 μM compound, 75 μM DNA as tetrads
[13] = tested on: PQS12 (FRET-labelled) (DNA, G4) AGGGGAGGGGCTGGGAGGGCCCGGAGGGGGCTGGGCCGGGGACCCGGGA; assay: fluorescence thermal shift assay; settings: 100 mM K+; 100 μM compound, 0.5 μM DNA, phosphate buffer

CCCC(CCC)C1CCN(c2nc(CCN)nc3ccccc23)CC1
Kd ([1]; BPEK buffer, 20 nM DNA): 17 [7, 45] μM | binding ([2]; K+ (concentration not stated)): yes | binding ([3]; K+ (concentration not stated)): no

CCOc1ccccc1CCNc1nc(CCN)nc2ccccc12
Kd ([1]; BPEK buffer (8 mM sodium phosphate, 1 mM EDTA), 20 nM DNA): 3 µM | binding ([2]; K+ (concentration not stated)): yes | binding ([3]; K+ (concentration not stated)): no

CCc1nc(N(CCC(=O)NC(C)C)CCc2ccccc2)c2ccccc2n1
Kd ([1]; BPEK buffer, 20 nM DNA): 5 [1, 23] μM

CN(CCc1ccccc1)c1nc(-c2ccc(F)cc2)nc2ccccc12
binding ([1]; BPEK buffer, up to 200 μM, no reliable fit): no

CN(CCc1ccccc1)c1nc(CCN)nc2ccccc12
binding [4]: yes | apparent Kd [5]: 24 µM | apparent Kd [6]: > 140 µM | apparent Kd [7]: > 140 µM | apparent Kd [8]: > 140 µM | apparent Kd [9]: > 140 µM | apparent Kd [10]: > 140 µM | binding [11]: yes | binding [12]: yes | Kd ([1]; BPEK buffer, 20 nM DNA): 8 [4, 19] μM

COCCN1CC2CCC1CN(c1nc(N(C)C)nc(C)c1C)C2 (stereo not drawn)
binding [4]: yes | apparent Kd [5]: 22 µM | apparent Kd [6]: > 140 µM | apparent Kd [7]: > 140 µM | apparent Kd [8]: > 140 µM | apparent Kd [9]: > 140 µM | apparent Kd [10]: > 140 µM

Cc1cnccc1NCCNC(=O)c1cccc(CC2CCNCC2)c1
binding [13]: no | binding ([2]; 100 mM K+): yes | binding ([3]; 100 mM K+): no

Cc1nc(NCCc2ccccc2)c2ccccc2n1
Kd ([1]; BPEK buffer, 20 nM DNA): 13 [7, 24] μM

NC(N)=NCCCS(=O)(=O)Nc1ccc(Nc2c3ccccc3nc3cc([N+](=O)[O-])ccc23)cc1
apparent Kd ([1]; BPEK buffer, 20 nM DNA, without calf thymus DNA, apparent): 2 µM
